We go through 14 compounds from patent US20250018046A1, “COMPOUNDS FOR TARGETING DEGRADATION OF IRAK4 PROTEINS” (BIOGEN MA INC, priority 2021, published 2025).

For the assay, the target named is T1, IRAK4 (Homo sapiens, UniProt Q9NWZ3).
T1 construct: knocking-in a HiBiT fusion tag into the C-terminal of the IRAK4 gene in 293T cells; host or cells: 293T cells, knock-in of HiBiT at the endogenous IRAK4 locus
T1 sequence (Q9NWZ3 1-460): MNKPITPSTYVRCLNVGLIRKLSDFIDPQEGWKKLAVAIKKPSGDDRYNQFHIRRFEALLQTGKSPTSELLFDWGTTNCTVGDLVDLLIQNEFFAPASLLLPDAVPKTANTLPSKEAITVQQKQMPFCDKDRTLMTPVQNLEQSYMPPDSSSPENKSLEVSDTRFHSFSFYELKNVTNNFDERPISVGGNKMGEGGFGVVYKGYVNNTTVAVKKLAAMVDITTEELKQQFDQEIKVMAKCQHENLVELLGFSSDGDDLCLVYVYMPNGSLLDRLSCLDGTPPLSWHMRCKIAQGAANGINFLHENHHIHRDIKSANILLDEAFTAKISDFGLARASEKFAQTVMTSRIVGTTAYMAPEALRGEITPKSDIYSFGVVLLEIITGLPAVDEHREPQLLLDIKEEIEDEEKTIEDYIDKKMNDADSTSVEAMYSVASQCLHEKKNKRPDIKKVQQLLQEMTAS
The assay is described as follows: IRAK4 degradation assay using the HiBiT Method. Format: cell-based. The following applies: 293T cells expressing HiBiT-tagged IRAK4; 6-hour incubation; Nano-Glo HiBiT Lytic Assay luminescence. The method in brief: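 HEK293T cells with HiBiT knocked into the IRAK4 C-terminus, 10,000 cells per well, treated with an 11-point half-log series […] in duplicate for 6 hours at 37° C., 5% CO2. Remaining IRAK4 quantified by Nano-Glo HiBiT lytic luminescence against DMSO controls.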
A general note: The HiBiT peptide binds its large partner to form an active luciferase.

The DC50 is the midpoint of the concentration-degradation curve. Low readings indicate a more potent degrader, high ones a less potent degrader. For the compound `CC(C)Oc1cc2nc(CC3CN(C(=O)CN4CCC(c5ccc(C6CCC(=O)NC6=O)cc5)CC4)C3)cn2cc1NC(=O)c1cccc(C(F)(F)F)n1` (centres unmarked) [Example 74, N-[2-[[1-[2-[4-[4-(2,6-dioxo-3-piperidyl)phenyl]-1-piperidyl]acetyl]azetidin-3-yl]methyl]-7-isopropoxy-imidazo[1,2-a]pyridin-6-yl]-6-(trifluoromethyl)pyridine-2-carboxamide], the DC50 fell in the range of 100 to 500 nM. `CC(C)Oc1cc2nc(C3CCN(C(=O)CN4CCC(c5ccc(C6CCC(=O)NC6=O)cc5)CC4)C3)cn2cc1NC(=O)c1cccc(C(F)(F)F)n1` (centres unmarked) [Example 75, N-[2-[1-[2-[4-[4-(2,6-dioxo-3-piperidyl)phenyl]-1-piperidyl]acetyl]pyrrolidin-3-yl]-7-isopropoxy-imidazo[1,2-a]pyridin-6-yl]-6-(trifluoromethyl)pyridine-2-carboxamide] displayed a DC50 of 10 to 100 nM. Then `CC(C)Oc1cc2nc(C3CCCN(C(=O)CN4CCC(c5ccc(C6CCC(=O)NC6=O)cc5)CC4)C3)cn2cc1NC(=O)c1cccc(C(F)(F)F)n1` (centres unmarked) [Example 76, N-[2-[1-[2-[4-[4-(2,6-dioxo-3-piperidyl)phenyl]-1-piperidyl]acetyl]-3-piperidyl]-7-isopropoxy-imidazo[1,2-a]pyridin-6-yl]-6-(trifluoromethyl)pyridine-2-carboxamide], with 100 to 500 nM; and `CC(C)Oc1cc2nc(C3CN(C(=O)CN4CCC(c5ccc(C6CCC(=O)NC6=O)cc5)CC4)C3)cn2cc1NC(=O)c1cccc(C(F)(F)F)n1` (centres unmarked) [Example 77, N-[2-[1-[2-[4-[4-(2,6-dioxo-3-piperidyl)phenyl]-1-piperidyl]acetyl]azetidin-3-yl]-7-isopropoxy-imidazo[1,2-a]pyridin-6-yl]-6-(trifluoromethyl)pyridine-2-carboxamide], with 100 to 500 nM. With `CC(C)Oc1cc2nc([C@@H](Cc3ccccc3)NC(=O)CN3CCC(c4ccc(C5CCC(=O)NC5=O)cc4)CC3)cn2cc1NC(=O)c1cccc(C(F)(F)F)n1` (stereo partly drawn) [Example 78, N-[2-[(1R)-1-[[2-[4-[4-(2,6-dioxo-3-piperidyl)phenyl]-1-piperidyl]acetyl]amino]-2-phenyl-ethyl]-7-isopropoxy-imidazo[1,2-a]pyridin-6-yl]-6-(trifluoromethyl)pyridine-2-carboxamide], the DC50 is 500 to 1000 nM. In the case of `CC(C)Oc1cc2nc(CC3CCN(C(=O)CN4CCC(c5ccc(C6CCC(=O)NC6=O)cc5)CC4)CC3)cn2cc1NC(=O)c1cccc(C(F)(F)F)n1` (centres unmarked) [Example 79, N-[2-[[1-[2-[4-[4-(2,6-dioxo-3-piperidyl)phenyl]-1-piperidyl]acetyl]-4-piperidyl]methyl]-7-isopropoxy-imidazo[1,2-a]pyridin-6-yl]-6-(trifluoromethyl)pyridine-2-carboxamide], the DC50 was 10 to 100 nM.

For the compound `CC(C)Oc1cc2nc(C3CCN(C(=O)C4CC5(CCCN5C(=O)c5ccc(OC6CCC(=O)NC6=O)cc5)C4)CC3)cn2cc1NC(=O)c1cccc(C(F)(F)F)n1` (centres unmarked) [Example 80, N-[2-[1-[5-[4-[(2,6-dioxo-3-piperidyl)oxy]benzoyl]-5-azaspiro[3.4]octane-2-carbonyl]-4-piperidyl]-7-isopropoxy-imidazo[1,2-a]pyridin-6-yl]-6-(trifluoromethyl)pyridine-2-carboxamide], the DC50 is 100 to 500 nM. The compound `CC(C)Oc1cc2nc(C3CCN(C(=O)CCC4CCN(C(=O)c5ccc(OC6CCC(=O)NC6=O)cc5)CC4)CC3)cn2cc1NC(=O)c1cccc(C(F)(F)F)n1` (centres unmarked) [Example 81, N-[2-[1-[3-[1-[4-[(2,6-dioxo-3-piperidyl)oxy]benzoyl]-4-piperidyl]propanoyl]-4-piperidyl]-7-isopropoxy-imidazo[1,2-a]pyridin-6-yl]-6-(trifluoromethyl)pyridine-2-carboxamide] came in with a DC50 of 100 to 500 nM. To `CC(C)Oc1cc2nc(C3CCN(C(=O)c4ccccc4CNC(=O)c4ccc(OC5CCC(=O)NC5=O)cc4)CC3)cn2cc1NC(=O)c1cccc(C(F)(F)F)n1` (centres unmarked) [Example 82, N-[2-[1-[2-[[[4-[(2,6-dioxo-3-piperidyl)oxy]benzoyl]amino]methyl]benzoyl]-4-piperidyl]-7-isopropoxy-imidazo[1,2-a]pyridin-6-yl]-6-(trifluoromethyl)pyridine-2-carboxamide] belongs 100 to 500 nM; to `CC(C)Oc1cc2nc(C3CCN(C(=O)C4CCCC5(CCN(C(=O)c6ccc(OC7CCC(=O)NC7=O)cc6)CC5)O4)CC3)cn2cc1NC(=O)c1cccc(C(F)(F)F)n1` (centres unmarked) [Example 83, N-[2-[1-[9-[4-[(2,6-dioxo-3-piperidyl)oxy]benzoyl]-1-oxa-9-azaspiro[5.5]undecane-2-carbonyl]-4-piperidyl]-7-isopropoxy-imidazo[1,2-a]pyridin-6-yl]-6-(trifluoromethyl) pyridine-2-carboxamide], 100 to 500 nM; to `CC(C)Oc1cc2nc(C3CCN(C(=O)C4CCN(C(=O)c5ccc(OC6CCC(=O)NC6=O)cc5)CC4)CC3)cn2cc1NC(=O)c1cccc(C(F)(F)F)n1` (centres unmarked) [Example 84, N-[2-[1-[1-[4-[(2,6-dioxo-3-piperidyl)oxy]benzoyl]piperidine-4-carbonyl]-4-piperidyl]-7-isopropoxy-imidazo[1,2-a]pyridin-6-yl]-6-(trifluoromethyl)pyridine-2-carboxamide], 500 to 1000 nM. To `Cc1cc(N2CCN(C(=O)CN3CCC(c4cn5cc(NC(=O)c6cccc(C(F)(F)F)n6)c(OC(C)C)cc5n4)CC3)CC2)ccc1NC1CCC(=O)NC1=O` (centres unmarked) [Example 85, N-[2-[1-[2-[4-[4-[(2,6-dioxo-3-piperidyl)amino]-3-methyl-phenyl]piperazin-1-yl]-2-oxo-ethyl]-4-piperidyl]-7-isopropoxy-imidazo[1,2-a]pyridin-6-yl]-6-(trifluoromethyl) pyridine-2-carboxamide] belongs 100 to 500 nM; to `CC(C)Oc1cc2nc(C3CCN(CC(=O)N4CCC(Oc5ccc(NC6CCC(=O)NC6=O)cc5)CC4)CC3)cn2cc1NC(=O)c1cccc(C(F)(F)F)n1` (centres unmarked) [Example 86, N-[2-[1-[2-[4-[4-[(2,6-dioxo-3-piperidyl)amino]phenoxy]-1-piperidyl]-2-oxo-ethyl]-4-piperidyl]-7-isopropoxy-imidazo[1,2-a]pyridin-6-yl]-6-(trifluoromethyl)pyridine-2-carboxamide], 100 to 500 nM; to `Cc1cc(NC2CCC(=O)NC2=O)ccc1C1CCN(C(=O)CN2CCC(c3cn4cc(NC(=O)c5cccc(C(F)(F)F)n5)c(OC(C)C)cc4n3)CC2)CC1` (centres unmarked) [Example 87, N-[2-[1-[2-[4-[4-[(2,6-dioxo-3-piperidyl)amino]-2-methyl-phenyl]-1-piperidyl]-2-oxo-ethyl]-4-piperidyl]-7-isopropoxy-imidazo[1,2-a]pyridin-6-yl]-6-(trifluoromethyl) pyridine-2-carboxamide], 10 to 100 nM.
